Assay results: patent publication US10072012B2, “Process for crystalline pemetrexed dipotassium salt” (SHILPA MEDICARE LIMITED, priority 2013, dated 2018)

Test: Handling and storage stability of crystalline Form-SP9
Type: physicochemical
Details: handling and storage for longer time; solid state
Text: Crystalline Form-SP9 retains its stoichiometry even on exposure to uncontrolled environmental conditions. This stable form thus, offers various advantages in terms of storage, shelf life and favorable impurity profile.

stability of the crystal form (morphology and physicochemical characteristics): very stable crystal lattice
Compound: Nc1nc2[nH]cc(CCc3ccc(C(=O)N[C@@H](CCC(=O)[O-])C(=O)[O-])cc3)c2c(=O)[nH]1.[K+].[K+] [Form-SP9, Pemetrexed dipotassium]
